According to paper PMC10349806 (Nature Communications, 2023):
“And” between values parts separate entries of the source, which are not always exact repeats. Equal entries are not always repeated.

What was measured:
[1] = tested on: PfCRT variant E207K/K80E; assay: CQ uptake assay, oocytes expressing E207K/K80E; type: cell-based, Plasmodium falciparum
Protocol: (§1) Site-directed mutagenesis of PfCRT^Dd2 was performed as described using the megaprimer method with overlap extension[21],[54]. The primer pairs used are listed in Supplementary Table 6. Please note that a codon-optimized and oocyte-adapted version of PfCRT^Dd2 was used[22] (Supplementary Fig. 16). The resulting DNA fragment was cloned into the SP64T expression vector and verified by sequencing.
(§2) Oocytes were obtained as described previously. Briefly, adult (>2 years old) female X. laevis frogs (NASCO) were anesthetized in a cooled solution of ethyl 3-amino benzoate methanesulfonate (0.1%, w/v), followed by a surgical removal of parts of the ovary. The ovary lobes were carefully dissected and small pieces of oocytes were incubated in Ca^2+-free ND96 buffer (96 mM NaCl, 2 mM KCl, 1 mM MgCl2 buffered with 5 mM HEPES/NaOH, pH 7.5) supplemented with collagenase D (0.1%, w/v; Roche), BSA (0.5%, w/v), and 9 mm Na2HPO4 at 18 °C for 14-16 h while gentle shaking. After incubation, the oocytes were carefully washed several times with ND96 buffer (96 mM NaCl, 2 mM KCl, 1.8 mM CaCl2, 1 mM MgCl2 buffered with 5 mM HEPES/NaOH, pH 7.5) supplemented with 100 mg l^−1 gentamycin). Defolliculated and healthy-looking stage V-VI oocytes were manually selected for RNA microinjection. The RNA was generated as following: The codon-optimized sequences of PfCRT variants were cloned into the pSP64T expression vector. After vector linearization using the restriction endonucleases BamHI or SalI (New England Biolabs), transcription was performed using the in vitro SP6 mMessage mMachine Kit (Ambion)[34]. The obtained RNA was kept at −80 °C and diluted with nuclease-free water to a concentration of 0.6 μg μl^−1. Precision-bore glass capillary tubes (3.5-inch glass capillaries; Drummond Scientific Co.) were pulled on a vertical puller (P-87 Flaming/Brown micropipette puller, Sutter Instrument Co.), graduated, and placed on a microinjector (Nanoject II Auto-Nanoliter Injector, Drummond Scientific Co.). 50 nl of nuclease-free water alone (control oocytes) or 50 nl of 0.6 μg μl^−1 RNA were injected under stereomicroscopic control. Injected oocytes were incubated for 46–72 h at 18 °C with twice-daily buffer changes before usage in experiments.
Drug uptake assays were performed as described previously[21],[22],[24],[34]. […] The radioactivity of each sample was measured using a liquid scintillation analyzer Tri-Carb 4910 TR (PerkinElmer). Oocytes that were injected with water instead of RNA were analyzed in parallel, representing the uptake of a drug by diffusion and/or endogenous permeation pathways. […]

[2] = tested on: PfCRT variant E207M; assay: CQ uptake assay, oocytes expressing E207M; type: cell-based, Plasmodium falciparum
Protocol: as §1, §2
(§3) Drug uptake assays were performed as described previously[21],[22],[24],[34]. […] The direction of radio-labeled drug transport is here from the mostly acidic extracellular solution (pH 4.5 or 6.0, as indicated) into the oocyte cytosol (pH ∼ 7.2), which corresponds to the efflux of drug from the acidic digestive vacuole (pH 5.2) into the parasite cytoplasm (pH 7.2). The topology of PfCRT in the oolemma is such that both the N- and C-terminus face the extracellular milieu[3],[22]. In the parasite, the N- and C-terminus face the lumen of the digestive vacuole. CQ uptake kinetics were performed by incubating oocytes in ND96 buffer adjusted to a pH of 4.5, 5.0, 5.5, or 6.0 and supplemented with 50 nM [^3H]CQ and one of 7 different CQ concentrations (10 µM, 50 µM, 100 µM, 200 µM, 300 µM, 400 µM, 500 µM CQ). The reaction was stopped at the 60 min time point, which is in the linear uptake range[22],[34] (Supplementary Fig. 17). For determination of the amount of drug uptake for each oocyte, the reaction medium was removed and the oocytes were washed three times with 2 ml of ice-cold ND96 buffer. Each oocyte was individually transferred to a scintillation vial containing 5% sodium dodecyl sulfate (200 μl) for lysis. The radioactivity of each sample was measured using a liquid scintillation analyzer Tri-Carb 4910 TR (PerkinElmer). Oocytes that were injected with water instead of RNA were analyzed in parallel, representing the uptake of a drug by diffusion and/or endogenous permeation pathways. The resulting value represents the “background“ level of drug accumulation in oocytes (in-depth discussion in[22]). […]

[3] = molecular target: T1, PfCRT variant CD3 (F3A, E29A, F52A, Y238A, F340A, E399A, E407A) (Plasmodium falciparum, UniProt Q9N623, A220S/E29A/E399A/E407A/F340A/F3A/F52A/I356T/K76T/M74I/N326S/N75E/Q271E/R371I/Y238A); assay: CQ uptake assay, oocytes expressing CD3; type: cell-based
T1 sequence (Q9N623 1-424 F3A/E29A/F52A/M74I/N75E/K76T/A220S/Y238A/Q271E/N326S/F340A/I356T/R371I/E399A/E407A): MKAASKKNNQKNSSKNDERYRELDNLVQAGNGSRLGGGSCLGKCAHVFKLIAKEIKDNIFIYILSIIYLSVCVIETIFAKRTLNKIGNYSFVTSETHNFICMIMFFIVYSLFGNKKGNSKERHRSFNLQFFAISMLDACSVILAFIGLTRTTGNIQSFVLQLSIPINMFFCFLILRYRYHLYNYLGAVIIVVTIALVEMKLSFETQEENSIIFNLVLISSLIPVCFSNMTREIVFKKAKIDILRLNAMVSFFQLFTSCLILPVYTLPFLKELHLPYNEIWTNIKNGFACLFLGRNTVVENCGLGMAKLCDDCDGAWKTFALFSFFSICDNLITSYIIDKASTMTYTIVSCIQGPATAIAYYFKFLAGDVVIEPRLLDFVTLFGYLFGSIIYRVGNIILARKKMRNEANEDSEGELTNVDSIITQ
Protocol: as §1, §2, §3

[4] = E207K/K80E, 50 µM CQ, 1 h, mean ± SEM
[5] = E207M, 50 µM CQ, 1 h, mean ± SEM

Which results are given for `CCN(CC)CCCC(C)Nc1ccnc2cc(Cl)ccc12` (stereo not shown) [CQ, chloroquine]?
Activity at pH 4.5 [1, 4]: 1.85 ± 0.84 pmol h-1 oocyte-1; Activity at pH 6.0 [1, 4]: 4.75 ± 0.91 pmol h-1 oocyte-1; E207K/K80E transport activity pH 4.5 ([1]; pH 4.5, individual replicates (Fig 6a)): 3.47 pmol oocyte-1 h-1 and 1.46 pmol oocyte-1 h-1 and 0.63 pmol oocyte-1 h-1; E207K/K80E transport activity pH 6.0 ([1]; pH 6.0, individual replicates (Fig 6a)): 6.4 pmol oocyte-1 h-1 and 4.59 pmol oocyte-1 h-1 and 3.25 pmol oocyte-1 h-1; Activity at pH 4.5 [2, 5]: 1.85 ± 0.27 pmol h-1 oocyte-1; Activity at pH 6.0 [2, 5]: 2.24 ± 0.41 pmol h-1 oocyte-1; R-value ([2]; E207M, CQ transport at pH 4.5 / pH 6.0): 0.85 ± 0.02; E207M transport activity pH 4.5 ([2]; pH 4.5, individual replicates, Fig 6b): 1.39 pmol oocyte-1 h-1 and 1.26 pmol oocyte-1 h-1 and 2.26 pmol oocyte-1 h-1 and 2.48 pmol oocyte-1 h-1; E207M transport activity pH 6.0 ([2]; pH 6.0, individual replicates, Fig 6b): 1.61 pmol oocyte-1 h-1 and 1.40 pmol oocyte-1 h-1 and 2.48 pmol oocyte-1 h-1 and 3.48 pmol oocyte-1 h-1; E207M R-value ([2]; ratio of activity pH 4.5 / pH 6.0): 0.86 and 0.90 and 0.91 and 0.71; Activity at pH 4.5 ([3]; CD3, 50 µM CQ, 1 h, mean ± SEM): 1.78 ± 0.46 pmol h-1 oocyte-1; Activity at pH 6.0 ([3]; CD3, 50 µM CQ, 1 h, mean ± SEM): 2.73 ± 0.57 pmol h-1 oocyte-1; R-value ([3]; CD3, CQ transport at pH 4.5 / pH 6.0): 0.62 ± 0.06; CD3 transport activity pH 4.5 ([3]; pH 4.5, single replicates, Fig 1d left): 0.66 pmol oocyte-1 h-1 and 2.21 pmol oocyte-1 h-1 and 2.46 pmol oocyte-1 h-1; CD3 R-value ([3]; pH 4.5 vs pH 6.0, Fig 1d left): 0.47 and 0.72 and 0.65; CD3 transport activity pH 6.0 ([3]; pH 6.0, single replicates, Fig 1d left): 1.39 pmol oocyte-1 h-1 and 3.05 pmol oocyte-1 h-1 and 3.76 pmol oocyte-1 h-1
